Measured values from patent US8658660B2, “5-fluoro-4-imino-3,4-dihydropyrimidin-2-(1H)-ones derivatives” (Dow AgroSciences, LLC., priority 2011, dated 2014).

Assays:
[1] = test system: Venturia inaequalis (VENTIN); experiment: Evaluation of fungicidal activity: apple scab (VENTIN); format: in vivo; settings: apple seedlings, percent control vs untreated inoculated plants
Experimental: Evaluation of Fungicidal Activity: Apple Scab (Venturia inaequalis; Bayer code […]) Apple seedlings (McIntosh or Golden Delicious) were grown in Metro mix and inoculated with a spore suspension containing 5×10^5 spore/ml. Plants were placed in a dew room for 24 hours with 100% relative humidity and then transferred to a greenhouse with a temperature of 18° C. for disease to develop. The following table presents the activity of typical compounds of the present disclosure when evaluated in these experiments. The effectiveness of the test compounds in controlling disease was determined by assessing the severity of disease on treated plants, then converting the severity to percent control based on the level of disease on untreated, inoculated plants.

[2] = test system: Mycosphaerella graminicola; anamorph: Septoria tritici (SEPTTR); experiment: Evaluation of fungicidal activity: leaf blotch of wheat (SEPTTR); format: in vivo, Septoria tritici on wheat plants (variety Yuma); settings: wheat plants, percent control vs untreated inoculated plants
Experimental: Evaluation of Fungicidal Activity: Leaf Blotch of Wheat (Mycosphaerella graminicola; anamorph: Septoria tritici; Bayer code […]) Wheat plants (variety Yuma) were grown from seed in a greenhouse in 50% mineral soil/50% soil-less Metro mix until the first leaf was fully emerged, with 7-10 seedlings per pot. These plants were inoculated with an aqueous spore suspension of Septoria tritici either prior to or after fungicide treatments. After inoculation the plants were kept in 100% relative humidity (one day in a dark dew chamber followed by two to three days in a lighted dew chamber) to permit spores to germinate and infect the leaf. The plants were then transferred to a greenhouse for disease to develop. The following table presents the activity of typical compounds of the present disclosure when evaluated in these experiments. The effectiveness of the test compounds in controlling disease was determined by assessing the severity of disease on treated plants, then converting the severity to percent control based on the level of disease on untreated, inoculated plants.

SMILES	VENTIN 100 PPM 1DP (One-Day Protectant activity, % disease control rating) [1]	SEPTTR 100 PPM 1DP (One-Day Protectant activity, % disease control rating) [2]	SEPTTR 100 PPM 3DC (Three-Day Curative activity, % disease control rating) [2]
Cn1c(=O)[nH]cc(F)c1=N [Cmpd 1, 5-fluoro-4-imino-3-methyl-3,4-dihydropyrimidin-2(1H)-one]	B (51-75)	A (76-100)	A (76-100)
N=c1c(F)c[nH]c(=O)n1Cc1cccs1 [Cmpd 2, 5-fluoro-4-imino-3-(thiophen-2-ylmethyl)-3,4-dihydropyrimidin-2(1H)-one]		B (51-75)	A (76-100)
[2H]C([2H])([2H])n1c(=O)[nH]cc(F)c1=N [Cmpd 3, 5-fluoro-4-imino-3-(trideuteriomethyl)-1H-pyrimidin-2-one]		D (0-25)	D (0-25)
